# Laboratory results taken from PubChem BioAssay (NCI).
#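 Results reflect a 48-hour exposure of cells in 96-well plates to compound at five concentrations. GI50 marks 50% less growth. TGI marks complete inhibition of growth.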
# System: 786-0 renal
# Assay: NCI tumour cell line growth inhibition, 48 h
Compound,GI50 [nM],TGI [nM]
COc1ccc(C(=O)c2cc(C)c(OC)c(C)c2)c(OC)c1O,667,> 100000
COCC[C@H]1CCC/C=C/[C@@H]2C[C@H](O)C[C@H]2[C@H](O)/C=C/C(=O)O1,23.4,54
Nc1ccccc1C#C/C=C\C#Cc1ccccc1N,13700,42900
COC(=O)Nc1nc2ccc(C3(c4ccc(F)cc4)OCCO3)cc2[nH]1,687,> 100000
O=C(Nc1n[nH]c2cc(-c3ccccc3)ccc12)C1CC1,> 25000,> 25000

# System: SNB-75 CNS
# Assay: NCI tumour cell line growth inhibition, 48 h
Compound,GI50 [nM],TGI [nM]
COc1ccc(C(=O)c2cc(C)c(OC)c(C)c2)c(OC)c1O,26,> 100000
COCC[C@H]1CCC/C=C/[C@@H]2C[C@H](O)C[C@H]2[C@H](O)/C=C/C(=O)O1,42.3,> 100000
Nc1ccccc1C#C/C=C\C#Cc1ccccc1N,29400,> 100000
COC(=O)Nc1nc2ccc(C3(c4ccc(F)cc4)OCCO3)cc2[nH]1,262,98400
O=C(Nc1n[nH]c2cc(-c3ccccc3)ccc12)C1CC1,> 20900,> 25000

# System: ACHN renal
# Assay: NCI tumour cell line growth inhibition, 48 h
Compound,GI50 [nM],TGI [nM]
COc1ccc(C(=O)c2cc(C)c(OC)c(C)c2)c(OC)c1O,56.6,> 100000
COCC[C@H]1CCC/C=C/[C@@H]2C[C@H](O)C[C@H]2[C@H](O)/C=C/C(=O)O1,319,> 100000
Nc1ccccc1C#C/C=C\C#Cc1ccccc1N,19900,50900
COC(=O)Nc1nc2ccc(C3(c4ccc(F)cc4)OCCO3)cc2[nH]1,917,> 66600
O=C(Nc1n[nH]c2cc(-c3ccccc3)ccc12)C1CC1,> 25000,> 25000

# System: HL-60(TB) leukemia
# Assay: NCI tumour cell line growth inhibition, 48 h
Compound,GI50 [nM],TGI [nM]
COc1ccc(C(=O)c2cc(C)c(OC)c(C)c2)c(OC)c1O,27.6,87.6
COCC[C@H]1CCC/C=C/[C@@H]2C[C@H](O)C[C@H]2[C@H](O)/C=C/C(=O)O1,273,870
Nc1ccccc1C#C/C=C\C#Cc1ccccc1N,4180,33700
COC(=O)Nc1nc2ccc(C3(c4ccc(F)cc4)OCCO3)cc2[nH]1,242,765
O=C(Nc1n[nH]c2cc(-c3ccccc3)ccc12)C1CC1,6340,> 20700

# System: HOP-92 NSCLC
# Assay: NCI tumour cell line growth inhibition, 48 h
Compound,GI50 [nM],TGI [nM]
COc1ccc(C(=O)c2cc(C)c(OC)c(C)c2)c(OC)c1O,247,> 100000
COCC[C@H]1CCC/C=C/[C@@H]2C[C@H](O)C[C@H]2[C@H](O)/C=C/C(=O)O1,214,888
Nc1ccccc1C#C/C=C\C#Cc1ccccc1N,1200,12200
COC(=O)Nc1nc2ccc(C3(c4ccc(F)cc4)OCCO3)cc2[nH]1,268,58000
O=C(Nc1n[nH]c2cc(-c3ccccc3)ccc12)C1CC1,> 25000,> 25000

# System: NCI/ADR-RES ovarian
# Assay: NCI tumour cell line growth inhibition, 48 h
Compound,GI50 [nM],TGI [nM]
COc1ccc(C(=O)c2cc(C)c(OC)c(C)c2)c(OC)c1O,25.7,–
COCC[C@H]1CCC/C=C/[C@@H]2C[C@H](O)C[C@H]2[C@H](O)/C=C/C(=O)O1,47.2,–
Nc1ccccc1C#C/C=C\C#Cc1ccccc1N,2260,7950
COC(=O)Nc1nc2ccc(C3(c4ccc(F)cc4)OCCO3)cc2[nH]1,280,> 35400
O=C(Nc1n[nH]c2cc(-c3ccccc3)ccc12)C1CC1,1790,> 25000

# System: HCT-116 colon
# Assay: NCI tumour cell line growth inhibition, 48 h
Compound,GI50 [nM],TGI [nM]
COc1ccc(C(=O)c2cc(C)c(OC)c(C)c2)c(OC)c1O,103,> 100000
COCC[C@H]1CCC/C=C/[C@@H]2C[C@H](O)C[C@H]2[C@H](O)/C=C/C(=O)O1,149,332
Nc1ccccc1C#C/C=C\C#Cc1ccccc1N,4150,19100
COC(=O)Nc1nc2ccc(C3(c4ccc(F)cc4)OCCO3)cc2[nH]1,409,> 49600
O=C(Nc1n[nH]c2cc(-c3ccccc3)ccc12)C1CC1,6560,> 25000

# System: SW-620 colon
# Assay: NCI tumour cell line growth inhibition, 48 h
Compound,GI50 [nM],TGI [nM]
COc1ccc(C(=O)c2cc(C)c(OC)c(C)c2)c(OC)c1O,36.6,> 100000
COCC[C@H]1CCC/C=C/[C@@H]2C[C@H](O)C[C@H]2[C@H](O)/C=C/C(=O)O1,57.2,258
Nc1ccccc1C#C/C=C\C#Cc1ccccc1N,2910,18400
COC(=O)Nc1nc2ccc(C3(c4ccc(F)cc4)OCCO3)cc2[nH]1,311,> 100000
O=C(Nc1n[nH]c2cc(-c3ccccc3)ccc12)C1CC1,4770,> 25000

# System: OVCAR-4 ovarian
# Assay: NCI tumour cell line growth inhibition, 48 h
Compound,GI50 [nM],TGI [nM]
COc1ccc(C(=O)c2cc(C)c(OC)c(C)c2)c(OC)c1O,415,> 100000
COCC[C@H]1CCC/C=C/[C@@H]2C[C@H](O)C[C@H]2[C@H](O)/C=C/C(=O)O1,52.8,–
Nc1ccccc1C#C/C=C\C#Cc1ccccc1N,34200,> 100000
COC(=O)Nc1nc2ccc(C3(c4ccc(F)cc4)OCCO3)cc2[nH]1,7160,> 100000
O=C(Nc1n[nH]c2cc(-c3ccccc3)ccc12)C1CC1,> 25000,> 25000

# System: A498 renal
# Assay: NCI tumour cell line growth inhibition, 48 h
Compound,GI50 [nM],TGI [nM]
COc1ccc(C(=O)c2cc(C)c(OC)c(C)c2)c(OC)c1O,1840,6030
COCC[C@H]1CCC/C=C/[C@@H]2C[C@H](O)C[C@H]2[C@H](O)/C=C/C(=O)O1,23.1,107
Nc1ccccc1C#C/C=C\C#Cc1ccccc1N,13600,36000
COC(=O)Nc1nc2ccc(C3(c4ccc(F)cc4)OCCO3)cc2[nH]1,133,2870
O=C(Nc1n[nH]c2cc(-c3ccccc3)ccc12)C1CC1,16100,> 25000
